Measured values: patent publication US20240165018A1, “HYDROGEL IMPLANTS FOR LOWERING INTRAOCULAR PRESSURE” (OCULAR THERAPEUTIX, INC., priority 2019, published 2024)
Like-named read-outs stand apart in the source and are kept apart here.

Assays:
[1] = system: glaucomatous beagles; experiment: IOP changes in glaucomatous beagles after travoprost instillations; type: in vivo
From the text: (§1) A pharmacodynamic study performed in twelve glaucomatous beagles evaluated the changes in intraocular pressure (IOP) and pupil diameter (PD) after instillations of 0.033, 0.0033, 0.001, 0.00033, and 0.0001% travoprost in multiple single-dose studies.

[2] = system: glaucomatous beagles; experiment: Pupil diameter changes in glaucomatous beagles after travoprost instillations; type: in vivo
From the text: as §1

[3] = system: subjects with primary open-angle glaucoma or ocular hypertension; experiment: IOP in subjects with primary open-angle glaucoma or ocular hypertension; type: in vivo, human; conditions: patients
From the text: Patient population was controlled ocular hypertension or primary open-angle glaucoma; open, normal anterior chamber angles on gonioscopy. Primary outcomes were as follows. Diurnal IOP (8 AM, 10 AM, 4 PM) at Baseline. Day 14. Day 42. Day 85, Month 4 and Month 6. Intraocular pressure at 8 AM at Day 1. Day 3. Day 7 and Day 28. Safety evaluations, including adverse event reporting, ocular comfort, global tolerance, BCVA, endothelial cell counts, and pachymetry.

[4] = system: lasered hypertensive cynomolgus monkeys; conditions: cited from earlier work

In the case of `CC(C)OC(=O)CCC/C=C\C[C@@H]1[C@@H](/C=C/[C@@H](O)COc2cccc(C(F)(F)F)c2)[C@H](O)C[C@@H]1O` [travoprost], the “effect on IOP” value ([1]; 0.0001% concentration) is reported as “limited IOP changes”, the “effect on IOP” value ([1]; concentrations of 0.00033, 0.001, and 0.0033%, single-dose instillation) is reported as “significantly lowered” and the “dosage strength that maintained IOP reduction for 24 hours” value ([1]; dog, in vivo) is reported as at least 0.001%. The PD changes ([2]; 0.0001% concentration) was “still significant”, the “pupil constriction maintained for 24 hours” value ([2]; all dosage strengths) was “no dosage strength maintained pupil constriction for 24 hours” and the “effect on pupil diameter (PD)” value ([2]; concentrations of 0.00033, 0.001, and 0.0033%) was “significantly lowered”. For the same compound, the “onset of decrease in mean IOP following administration” value [3] was “as early as two days”, the IOP lowering ([4]; continued twice a day dosing at 0.1 μg, after doses 4 and 5) was “significant lowering of IOP” and the IOP lowering ([4]; single dose of 0.1 μg) was “did not significantly lower IOP”. For the same compound, the IOP reduction ([4]; single dose of 0.3 μg) was 19-26%.
